These compounds were tested on Key Grass and Sedge Weeds as well as Grass Crops (assay: Post-Emergent Test II (Table 6)). Conditions: CYPSS (CYPES: yellow nutsedge, Cyperus esculentus), 70 g ai/ha.
Format: in vivo
Protocol: Seeds or nutlets of the desired test plant species were planted in Sun Gro Metro-Mix® 360 planting mixture, which typically has a pH of 6.0 to 6.8 and an organic matter content of about 30 percent, in plastic pots with a surface area of 64 square centimeters. When required to ensure good germination and healthy plants, a fungicide treatment and/or other chemical or physical treatment was applied. The plants were grown for 7-21 days in a greenhouse with an approximate 15 h photoperiod which was maintained at about 23-29° C. during the day and 22-28° C. during the night. Nutrients and water were added on a regular basis and supplemental lighting was provided with overhead metal halide 1000-Watt lamps as necessary. The plants were employed for testing when they reached the first or second true leaf stage.
A weighed amount, determined by the highest rate to be tested, of each test compound was placed in a 25 mL glass vial and was dissolved in 4 mL of a 97:3 v/v mixture of acetone and DMSO to obtain concentrated stock solutions. […] The concentrated stock solutions obtained were diluted with 20 mL of an aqueous mixture containing acetone, water, isopropyl alcohol, DMSO, Atplus 411F crop oil concentrate, and Triton® X-155 surfactant in a 48.5:39:10:1.5:1.0:0.02 v/v ratio to obtain spray solutions containing the highest application rates. Additional application rates were obtained by serial dilution of 12 mL of the high rate solution into a solution containing 2 mL of 97:3 v/v mixture of acetone and DMSO and 10 mL of an aqueous mixture containing acetone, water, isopropyl alcohol, DMSO, Atplus 411F crop oil concentrate, and Triton X-155 surfactant in a 48.5:39:10:1.5:1.0:0.02 v/v ratio to obtain ½×, ¼×, ⅛× and 1/16× rates of the high rate. Compound requirements are based upon a 12 mL application volume at a rate of 187 liters per hectare (L/ha). Formulated compounds were applied to the plant material with an overhead Mandel track sprayer equipped with 8002E nozzles calibrated to deliver 187 L/ha over an application area of 0.503 square meters at a spray height of 18 inches (43 cm) above the average plant canopy height. Control plants were sprayed in the same manner with the solvent blank.
The treated plants and control plants were placed in a greenhouse as described above and watered by subirrigation to prevent wash-off of the test compounds. After 14 days, the condition of the test plants as compared with that of the untreated plants was determined visually and scored on a scale of 0 to 100 percent where 0 corresponds to no injury and 100 corresponds to complete kill and presented as indicated in Table A. Some of the compounds tested, application rates employed, plant species tested, and results are given in Table 5.

| Compound | Visual Growth Reduction (%) 14 Days After Application, CYPSS |
| --- | --- |
| COC(=O)c1nc(-c2ccc(Cl)c(F)c2Cl)c(F)c(N)c1Cl [Compound 19, Methyl 4-amino-3-chloro-6-(2,4-dichloro-3-fluorophenyl)-5-fluoropicolinate] | A (95-100) |

Same assay, conditions: CYPSS (CYPES: yellow nutsedge, Cyperus esculentus), 140 g ai/ha

| Compound | Visual Growth Reduction (%) 14 Days After Application, CYPSS |
| --- | --- |
| COC(=O)c1nc(-c2ccc(Cl)c(F)c2Cl)c(F)c(N)c1Cl [Compound 19, Methyl 4-amino-3-chloro-6-(2,4-dichloro-3-fluorophenyl)-5-fluoropicolinate] | A (95-100) |

Same assay, conditions: DIGSA: crabgrass (Digitaria sanguinalis), 70 g ai/ha

| Compound | Visual Growth Reduction (%) 14 Days After Application, DIGSA |
| --- | --- |
| COC(=O)c1nc(-c2ccc(Cl)c(F)c2Cl)c(F)c(N)c1Cl [Compound 19, Methyl 4-amino-3-chloro-6-(2,4-dichloro-3-fluorophenyl)-5-fluoropicolinate] | E (45-59) |

Same assay, conditions: DIGSA: crabgrass (Digitaria sanguinalis), 140 g ai/ha

| Compound | Visual Growth Reduction (%) 14 Days After Application, DIGSA |
| --- | --- |
| COC(=O)c1nc(-c2ccc(Cl)c(F)c2Cl)c(F)c(N)c1Cl [Compound 19, Methyl 4-amino-3-chloro-6-(2,4-dichloro-3-fluorophenyl)-5-fluoropicolinate] | C (75-84) |

Same assay, conditions: ECHSS (ECHCG: barnyardgrass, Echinochloa crus-galli), 70 g ai/ha

| Compound | Visual Growth Reduction (%) 14 Days After Application, ECHSS |
| --- | --- |
| COC(=O)c1nc(-c2ccc(Cl)c(F)c2Cl)c(F)c(N)c1Cl [Compound 19, Methyl 4-amino-3-chloro-6-(2,4-dichloro-3-fluorophenyl)-5-fluoropicolinate] | C (75-84) |

Same assay, conditions: ECHSS (ECHCG: barnyardgrass, Echinochloa crus-galli), 140 g ai/ha

| Compound | Visual Growth Reduction (%) 14 Days After Application, ECHSS |
| --- | --- |
| COC(=O)c1nc(-c2ccc(Cl)c(F)c2Cl)c(F)c(N)c1Cl [Compound 19, Methyl 4-amino-3-chloro-6-(2,4-dichloro-3-fluorophenyl)-5-fluoropicolinate] | A (95-100) |

Same assay, conditions: ORYSS (ORYSA: rice, Oryza sativa), crop, 70 g ai/ha

| Compound | Visual Growth Reduction (%) 14 Days After Application, ORYSS |
| --- | --- |
| COC(=O)c1nc(-c2ccc(Cl)c(F)c2Cl)c(F)c(N)c1Cl [Compound 19, Methyl 4-amino-3-chloro-6-(2,4-dichloro-3-fluorophenyl)-5-fluoropicolinate] | F (30-44) |

Same assay, conditions: ORYSS (ORYSA: rice, Oryza sativa), crop, 140 g ai/ha

| Compound | Visual Growth Reduction (%) 14 Days After Application, ORYSS |
| --- | --- |
| COC(=O)c1nc(-c2ccc(Cl)c(F)c2Cl)c(F)c(N)c1Cl [Compound 19, Methyl 4-amino-3-chloro-6-(2,4-dichloro-3-fluorophenyl)-5-fluoropicolinate] | E (45-59) |

Same assay, conditions: SETFA: giant foxtail (Setaria faberi), 70 g ai/ha

| Compound | Visual Growth Reduction (%) 14 Days After Application, SETFA |
| --- | --- |
| COC(=O)c1nc(-c2ccc(Cl)c(F)c2Cl)c(F)c(N)c1Cl [Compound 19, Methyl 4-amino-3-chloro-6-(2,4-dichloro-3-fluorophenyl)-5-fluoropicolinate] | C (75-84) |

Same assay, conditions: SETFA: giant foxtail (Setaria faberi), 140 g ai/ha

| Compound | Visual Growth Reduction (%) 14 Days After Application, SETFA |
| --- | --- |
| COC(=O)c1nc(-c2ccc(Cl)c(F)c2Cl)c(F)c(N)c1Cl [Compound 19, Methyl 4-amino-3-chloro-6-(2,4-dichloro-3-fluorophenyl)-5-fluoropicolinate] | B (85-94) |

Same assay, conditions: SORVU: johnsongrass (Sorghum vulgare), 70 g ai/ha

| Compound | Visual Growth Reduction (%) 14 Days After Application, SORVU |
| --- | --- |
| COC(=O)c1nc(-c2ccc(Cl)c(F)c2Cl)c(F)c(N)c1Cl [Compound 19, Methyl 4-amino-3-chloro-6-(2,4-dichloro-3-fluorophenyl)-5-fluoropicolinate] | B (85-94) |

Same assay, conditions: SORVU: johnsongrass (Sorghum vulgare), 140 g ai/ha

| Compound | Visual Growth Reduction (%) 14 Days After Application, SORVU |
| --- | --- |
| COC(=O)c1nc(-c2ccc(Cl)c(F)c2Cl)c(F)c(N)c1Cl [Compound 19, Methyl 4-amino-3-chloro-6-(2,4-dichloro-3-fluorophenyl)-5-fluoropicolinate] | B (85-94) |

Same assay, conditions: TRZSS (TRZAS: wheat, spring, Triticum aestivum), crop, 70 g ai/ha

| Compound | Visual Growth Reduction (%) 14 Days After Application, TRZSS |
| --- | --- |
| COC(=O)c1nc(-c2ccc(Cl)c(F)c2Cl)c(F)c(N)c1Cl [Compound 19, Methyl 4-amino-3-chloro-6-(2,4-dichloro-3-fluorophenyl)-5-fluoropicolinate] | C (75-84) |

Same assay, conditions: TRZSS (TRZAS: wheat, spring, Triticum aestivum), crop, 140 g ai/ha

| Compound | Visual Growth Reduction (%) 14 Days After Application, TRZSS |
| --- | --- |
| COC(=O)c1nc(-c2ccc(Cl)c(F)c2Cl)c(F)c(N)c1Cl [Compound 19, Methyl 4-amino-3-chloro-6-(2,4-dichloro-3-fluorophenyl)-5-fluoropicolinate] | C (75-84) |

Same assay, conditions: ZEAMX: maize, corn (Zea mays), crop, 70 g ai/ha

| Compound | Visual Growth Reduction (%) 14 Days After Application, ZEAMX |
| --- | --- |
| COC(=O)c1nc(-c2ccc(Cl)c(F)c2Cl)c(F)c(N)c1Cl [Compound 19, Methyl 4-amino-3-chloro-6-(2,4-dichloro-3-fluorophenyl)-5-fluoropicolinate] | B (85-94) |

Source: patent US10765114B2, “4-amino-6-(pyridyl and 2-substitutedphenyl)-picolinates and 6-amino-2-(pyridyl and 2-substitutedphenyl)-pyrimidine-4-carboxylates and their use as herbicides” (Dow AgroSciences LLC, priority 2013, dated 2020)
